Laboratory results: patent US8609708B2 (Human BioMolecular Research Institute, priority 2003, dated 2013)

Legend:
CYP2A13 = CYP2A13 (Homo sapiens (Human), UniProt Q16696); details: cited from earlier work
[1] = system: NNK-dependent tumorigenesis in mice; details: mouse, in vivo; cited from earlier work
P450 2A6dH = P450 2A6dH (Homo sapiens (Human), UniProt P11509, INS494HHHH); assay: Difference spectra of test compounds with N-terminal truncated CYP2A6
Method: Subsequently, test compound (in 100% ethanol, 10 μM) was added to both the cuvettes. The maximal ethanol concentration used was 2%. The difference spectra were obtained after the system reached equilibrium (3 min). All spectra were recorded at 25° C.

[2] = Mouse liver microsome stability assay; details: mouse, microsomes, pH 7.4
Method: The residue was reconstituted in methanol (200 μL), centrifuged at 13,000 rpm for 5 min and the supernatant was analyzed by high-performance liquid chromatography with an Axxi-chrom (straight-phase) silica column (4.6 mm×250 mm, 5 μm) or with a Supelco (reverse-phase) HS F5 pentafluorophenyl column (4.6 mm×250 mm, 5 μm).

in vitro = details: human, microsomes, pH 7.4
CYP2D6 = CYP2D6 (Homo sapiens (Human), UniProt P10635); assay: CYP2D6 Vivid blue substrate O-dealkylation inhibition; format: biochemical; details: Table 4; unit inferred; read-out: 2D6 IC50 ± SD
Sequence of CYP2D6 (P10635 whole entry): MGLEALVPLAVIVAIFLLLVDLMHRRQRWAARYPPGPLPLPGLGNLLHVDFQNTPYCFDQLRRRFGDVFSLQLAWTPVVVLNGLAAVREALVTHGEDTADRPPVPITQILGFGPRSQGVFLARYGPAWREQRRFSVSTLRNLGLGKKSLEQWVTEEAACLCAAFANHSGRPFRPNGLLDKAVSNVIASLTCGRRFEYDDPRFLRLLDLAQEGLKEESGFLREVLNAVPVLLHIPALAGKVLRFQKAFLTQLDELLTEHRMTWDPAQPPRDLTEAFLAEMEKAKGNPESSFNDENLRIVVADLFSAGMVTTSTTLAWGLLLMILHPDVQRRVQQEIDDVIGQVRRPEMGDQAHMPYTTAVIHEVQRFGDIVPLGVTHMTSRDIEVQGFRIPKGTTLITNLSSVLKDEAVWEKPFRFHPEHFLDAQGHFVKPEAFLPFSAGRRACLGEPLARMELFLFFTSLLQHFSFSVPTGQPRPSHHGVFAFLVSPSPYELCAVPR

CYP2E1 = CYP2E1 (Homo sapiens (Human), UniProt P05181); assay: CYP2E1 Vivid blue substrate O-dealkylation inhibition; format: biochemical; details: Table 4; unit inferred; read-out: 2E1 IC50 ± SD
Sequence of CYP2E1 (P05181 whole entry): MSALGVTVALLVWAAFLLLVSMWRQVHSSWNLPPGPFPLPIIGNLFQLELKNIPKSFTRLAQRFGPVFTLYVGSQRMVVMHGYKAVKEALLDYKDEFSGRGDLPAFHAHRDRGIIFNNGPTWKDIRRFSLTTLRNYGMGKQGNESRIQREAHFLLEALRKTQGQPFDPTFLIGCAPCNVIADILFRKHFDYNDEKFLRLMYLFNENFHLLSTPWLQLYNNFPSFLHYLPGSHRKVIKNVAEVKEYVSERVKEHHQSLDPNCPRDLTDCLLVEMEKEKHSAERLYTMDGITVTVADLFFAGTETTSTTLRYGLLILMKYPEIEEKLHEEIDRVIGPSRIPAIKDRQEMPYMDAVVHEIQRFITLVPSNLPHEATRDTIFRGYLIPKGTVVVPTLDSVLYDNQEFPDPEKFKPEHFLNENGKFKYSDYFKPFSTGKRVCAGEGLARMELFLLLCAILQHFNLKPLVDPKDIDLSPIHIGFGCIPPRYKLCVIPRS

Sequence of P450 2A6dH (P11509 other isoform, or with tags, fused parts or gaps 1-28 replaced by MAKKTS/ins HHHH behind 494): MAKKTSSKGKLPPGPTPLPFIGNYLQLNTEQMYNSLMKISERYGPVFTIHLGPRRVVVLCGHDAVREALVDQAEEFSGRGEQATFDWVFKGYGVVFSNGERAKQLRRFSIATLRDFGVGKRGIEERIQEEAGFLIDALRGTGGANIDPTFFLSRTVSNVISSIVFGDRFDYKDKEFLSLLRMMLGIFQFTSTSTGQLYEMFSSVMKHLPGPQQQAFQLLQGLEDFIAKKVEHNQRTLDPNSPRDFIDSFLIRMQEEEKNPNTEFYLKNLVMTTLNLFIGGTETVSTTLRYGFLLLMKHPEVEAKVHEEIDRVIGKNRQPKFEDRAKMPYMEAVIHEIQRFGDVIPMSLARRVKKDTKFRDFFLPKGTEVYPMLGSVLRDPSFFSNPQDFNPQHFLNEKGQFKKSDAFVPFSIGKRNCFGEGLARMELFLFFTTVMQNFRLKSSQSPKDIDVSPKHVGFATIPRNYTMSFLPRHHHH
Sequence of CYP2A13 (Q16696 whole entry): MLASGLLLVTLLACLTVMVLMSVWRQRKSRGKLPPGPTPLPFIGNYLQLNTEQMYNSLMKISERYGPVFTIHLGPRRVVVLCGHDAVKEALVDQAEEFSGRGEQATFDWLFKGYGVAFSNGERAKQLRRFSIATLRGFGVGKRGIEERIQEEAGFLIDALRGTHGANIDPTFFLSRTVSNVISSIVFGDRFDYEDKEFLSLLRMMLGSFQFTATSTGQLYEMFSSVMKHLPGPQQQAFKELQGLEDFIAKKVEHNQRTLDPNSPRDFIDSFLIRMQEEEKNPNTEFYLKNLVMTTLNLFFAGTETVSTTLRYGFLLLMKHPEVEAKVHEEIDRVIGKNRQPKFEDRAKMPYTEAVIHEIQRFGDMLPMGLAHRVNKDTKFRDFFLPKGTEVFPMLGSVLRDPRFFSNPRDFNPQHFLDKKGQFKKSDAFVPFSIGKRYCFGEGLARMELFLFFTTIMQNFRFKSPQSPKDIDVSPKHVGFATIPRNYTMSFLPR

COc1c2occc2cc2ccc(=O)oc12 [methoxypsoralen (8-methoxypsoralen), 8-methoxypsoralen]
Ki (CYP2A13): 110 nM

COc1c2occc2cc2ccc(=O)oc12 [methoxsalen (9-methoxypsoralen), 9-methoxypsoralen]
NNK-dependent tumorigenesis in mice (in words) [1]: strongly inhibited

NCc1ccc(-c2cccnc2)s1 [Compound 1a]
λmax (P450 2A6dH; difference spectrum): 428 nm | λmin (P450 2A6dH; difference spectrum): 409 nm | binding type (P450 2A6dH; difference spectrum with truncated CYP2A6): Type II | half-life at 40 μM [2]: 60 min | half-life (in vitro): 39 min | IC50 (CYP2D6): 169 ± 17 µM | IC50 (CYP2E1): 40.2 ± 18.1 µM
